From US4252808A, “β-Lactam antibacterial agents, their use in pharmaceutical compositions, the process for their preparation and intermediates for use in that process” (Beecham Group Limited, priority 1978, dated 1981)
In brackets after ≈: the same amount, converted by molar mass. Structures can show the parent of a compound that is named as a salt.

Assays:
Format in all cases: cell-based
B. subtilis [1] = assay: MIC, serial dilution in DST agar with 10% horse blood (Table 2); conditions: Bacillus subtilis, inoculum diluted 10^-2
From the text: (§1) *Serial dilution in DST agar containing 10% horse blood, inoculum 0.001 m
(§2) broth culture diluted 10^-2 for Grampositive and 10^-4 for
(§3) Gramnegative organisms.

E. cloacae Nl [2] = assay: as above; conditions: Enterobacter cloacae, inoculum diluted 10^-4
From the text: as §1, §2, §3

E. coli 0111 = assay: as above; conditions: Escherichia coli, inoculum diluted 10^-4
From the text: as §1, §2, §3

K. aerogenes A [3] = assay: as above; conditions: Klebsiella aerogenes, inoculum diluted 10^-4
From the text: as §1, §2, §3

P. mirabilis C 977 [4] = assay: as above; conditions: Proteus mirabilis, C977, inoculum diluted 10^-4
From the text: as §1, §2, §3

P. morganii 1580 = assay: as above; conditions: Morganella morganii, inoculum diluted 10^-4
From the text: as §1, §2, §3

P. rettgeri WM 16 = assay: as above; conditions: Providencia rettgeri, WM16, inoculum diluted 10^-4
From the text: as §1, §2, §3

S. aureues Russell = assay: as above; conditions: Staphylococcus aureus, inoculum diluted 10^-2
From the text: as §1, §2, §3

S. aureus 1517 [5] = assay: as above; conditions: Staphylococcus aureus, inoculum diluted 10^-2
From the text: as §1, §2, §3

S. faecalis 1 [6] = assay: as above; conditions: Enterococcus faecalis, inoculum diluted 10^-2
From the text: as §1, §2, §3

S. pneumoniae CN 33 = assay: as above; conditions: Streptococcus pneumoniae, CN33, inoculum diluted 10^-2
From the text: as §1, §2, §3

S. pyogenes CN 10 [7] = assay: as above; conditions: Streptococcus pyogenes, CN10, inoculum diluted 10^-2
From the text: as §1, §2, §3

S. aureus Oxford [8] = assay: as above; conditions: Staphylococcus aureus, inoculum diluted 10^-2
From the text: as §1, §2, §3

B. subtilis [9] = assay: MIC, serial dilution in nutrient agar with 5% horse blood (Table 1); conditions: Bacillus subtilis, inoculum 0.001 ml undiluted broth culture
Experimental: (§4) | *Serial dilution in nutrient agar containing 5% horse blood, inoculum | 0.001 ml undiluted broth culture.

E. cloacae Nl [10] = assay: as above; conditions: Enterobacter cloacae, inoculum 0.001 ml undiluted broth culture
Experimental: as §4

E. coli JT 4 = assay: as above; conditions: Escherichia coli, JT4, inoculum 0.001 ml undiluted broth culture
Experimental: as §4

K. aerogenes A [11] = assay: as above; conditions: Klebsiella aerogenes, inoculum 0.001 ml undiluted broth culture
Experimental: as §4

P. mirabilis C 977 [12] = assay: as above; conditions: Proteus mirabilis, C977, inoculum 0.001 ml undiluted broth culture
Experimental: as §4

P. morganii = assay: as above; conditions: Morganella morganii, inoculum 0.001 ml undiluted broth culture
Experimental: as §4

P. rettgeri = assay: as above; conditions: Providencia rettgeri, inoculum 0.001 ml undiluted broth culture
Experimental: as §4

S. aureus 1517 [13] = assay: as above; conditions: Staphylococcus aureus, inoculum 0.001 ml undiluted broth culture
Experimental: as §4

S. aureus Oxford [14] = assay: as above; conditions: Staphylococcus aureus, inoculum 0.001 ml undiluted broth culture
Experimental: as §4

S. aureus Russell = assay: as above; conditions: Staphylococcus aureus, inoculum 0.001 ml undiluted broth culture
Experimental: as §4

S. faecalis 1 [15] = assay: as above; conditions: Enterococcus faecalis, inoculum 0.001 ml undiluted broth culture
Experimental: as §4

S. pyogenes CN 10 [16] = assay: as above; conditions: Streptococcus pyogenes, CN10, inoculum 0.001 ml undiluted broth culture
Experimental: as §4

| Compound | MIC (B. subtilis [1]) | MIC (E. cloacae Nl [2]) | MIC (E. coli 0111) | MIC (K. aerogenes A [3]) | MIC (P. mirabilis C 977 [4]) | MIC (P. morganii 1580) | MIC (P. rettgeri WM 16) | MIC (S. aureues Russell) | MIC (S. aureus 1517 [5]) | MIC (S. faecalis 1 [6]) | MIC (S. pneumoniae CN 33) | MIC (S. pyogenes CN 10 [7]) | MIC (B. subtilis [9]) | MIC (E. cloacae Nl [10]) | MIC (E. coli JT 4) | MIC (K. aerogenes A [11]) | MIC (P. mirabilis C 977 [12]) | MIC (P. morganii) | MIC (P. rettgeri) | MIC (S. aureus 1517 [13]) | further results |
| --- | --- | --- | --- | --- | --- | --- | --- | --- | --- | --- | --- | --- | --- | --- | --- | --- | --- | --- | --- | --- | --- |
| CCSCC(=O)NC1C(=O)N2C(C(=O)O)=C(C)c3cnnn3C12 [Compound 48, (3aR,4S)-4,5-Dihydro-5-oxo-8-methyl-4-ethylthioacetamido 3aH-azeto[1,2a]v-triazolo[3,4c]pyrimidine-7-carboxylic acid] | 0.2 µg/mL (≈ 0.593 µM) | > 100 µg/mL | 50 µg/mL (≈ 148 µM) | 50 µg/mL (≈ 148 µM) | 10 µg/mL (≈ 29.6 µM) | 25 µg/mL (≈ 74.1 µM) | > 100 µg/mL | 5 µg/mL (≈ 14.8 µM) | 25 µg/mL (≈ 74.1 µM) | 25 µg/mL (≈ 74.1 µM) | 1 µg/mL (≈ 2.96 µM) | 0.5 µg/mL (≈ 1.48 µM) |  |  |  |  |  |  |  |  |  |
| CO/N=C(\C(=O)N[C@@H]1C(=O)N2C(C(=O)O)=C(C)c3cnnn3[C@H]12)c1ccco1 [Compound 50, (3aR,4R)-4,5-Dihydro-5-oxo-8-methyl-4-[(2-methoxyimino-2-fur-2'-yl)acetamido]-3aH-azeto[1,2-a]v-triazolo[3,4-c]pyrimidine-7-carboxylic acid] | 5 µg/mL (≈ 12.9 µM) | > 100 µg/mL | 100 µg/mL (≈ 259 µM) | 100 µg/mL (≈ 259 µM) | 50 µg/mL (≈ 129 µM) | 100 µg/mL (≈ 259 µM) | > 100 µg/mL | 25 µg/mL (≈ 64.7 µM) | 100 µg/mL (≈ 259 µM) | > 100 µg/mL | 10 µg/mL (≈ 25.9 µM) | 1 µg/mL (≈ 2.59 µM) |  |  |  |  |  |  |  |  |  |
| CC1=C(C(=O)O)N2C(=O)[C@@H](NC(=O)CC#N)[C@H]2n2nncc21 [Compound 49, (3aR,4S)-4,5-Dihydro-5-oxo-8-methyl-4-cyanoacetamido 3aH-azeto[1,2a]v-triazolo[3,4-c]pyrimidine-7-carboxylic acid] | 2.5 µg/mL (≈ 8.27 µM) | > 100 µg/mL | 100 µg/mL (≈ 331 µM) | 100 µg/mL (≈ 331 µM) | 50 µg/mL (≈ 165 µM) | 100 µg/mL (≈ 331 µM) | > 100 µg/mL | 25 µg/mL (≈ 82.7 µM) | 100 µg/mL (≈ 331 µM) | 25 µg/mL (≈ 82.7 µM) | 5 µg/mL (≈ 16.5 µM) | 2.5 µg/mL (≈ 8.27 µM) |  |  |  |  |  |  |  |  | MIC (S. aureus Oxford [8]): 5 µg/mL (≈ 16.5 µM) |
| CC1=C(C(=O)O)N2C(=O)[C@@H](NC(=O)C(F)(F)F)[C@H]2n2nncc21 [Compound 51, (3aR,4S)-4,5-Dihydro-5-oxo-8-methyl-4-trifluoroacetamido 3aH-azeto[1,2-a]v-triazolo[3,4-c]pyrimidine-7-carboxylic acid] | 5 µg/mL (≈ 15.1 µM) | > 100 µg/mL | 100 µg/mL (≈ 302 µM) | > 100 µg/mL | > 100 µg/mL | > 100 µg/mL | > 100 µg/mL | > 100 µg/mL | > 100 µg/mL | 100 µg/mL (≈ 302 µM) | 50 µg/mL (≈ 151 µM) | 25 µg/mL (≈ 75.5 µM) |  |  |  |  |  |  |  |  | MIC (S. aureus Oxford [8]): > 100 µg/mL |
| CC1=C(C(=O)O)N2C(=O)[C@@H](NC(=O)C(C(=O)Oc3ccccc3)c3ccccc3)[C@H]2n2nncc21 (stereo partly drawn) [Compound 44, (3aR,4S) 4,5-Dihydro-5-oxo-8-methyl-4-DL (α-phenoxycarbonylphenyl-acetamido)-3aH-azeto[1,2-a]v-triazolo[3,4-c]pyrimidine-7-carboxylic acid] | 25 µg/mL (≈ 52.8 µM) | 50 µg/mL (≈ 106 µM) | 10 µg/mL (≈ 21.1 µM) | 10 µg/mL (≈ 21.1 µM) | 10 µg/mL (≈ 21.1 µM) | 10 µg/mL (≈ 21.1 µM) | 10 µg/mL (≈ 21.1 µM) | 25 µg/mL (≈ 52.8 µM) | 100 µg/mL (≈ 211 µM) | > 100 µg/mL | 10 µg/mL (≈ 21.1 µM) | 10 µg/mL (≈ 21.1 µM) | 25 µg/mL (≈ 52.8 µM) | > 100 µg/mL | > 100 µg/mL | 50 µg/mL (≈ 106 µM) | 50 µg/mL (≈ 106 µM) | > 100 µg/mL | > 50 µg/mL | > 100 µg/mL | MIC (S. aureus Oxford [14]): 50 µg/mL (≈ 106 µM); MIC (S. aureus Russell): 100 µg/mL (≈ 211 µM); MIC (S. faecalis 1 [15]): > 100 µg/mL; MIC (S. aureus Oxford [8]): 25 µg/mL (≈ 52.8 µM) |
| Cc1nnc(SCC2=C(C(=O)O)N3C(=O)[C@@H](NC(=O)Cc4cccs4)[C@H]3n3nncc32)s1 [Compound 60, (3aR,4S) 4,5-Dihydro-5-oxo-8-[5-methyl(1,3,4-thiadiazol-2-yl)thiomethyl]-4-(2-thienylacetamido)-3aH-azeto[1,2-a]-v-triazolo[3,4-c]pyrimidine-7-carboxylic acid] | 5 µg/mL (≈ 10.2 µM) | > 100 µg/mL | > 100 µg/mL | > 100 µg/mL | > 100 µg/mL | > 100 µg/mL | > 100 µg/mL | 25 µg/mL (≈ 51.1 µM) | 100 µg/mL (≈ 204 µM) | 25 µg/mL (≈ 51.1 µM) | 0.5 µg/mL (≈ 1.02 µM) | 2.5 µg/mL (≈ 5.11 µM) | 50 µg/mL (≈ 102 µM) | > 100 µg/mL | > 100 µg/mL | > 100 µg/mL | > 100 µg/mL | > 100 µg/mL | > 100 µg/mL | > 100 µg/mL | MIC (S. aureus Oxford [14]): > 100 µg/mL; MIC (S. aureus Russell): > 100 µg/mL; MIC (S. faecalis 1 [15]): > 100 µg/mL; MIC (S. pyogenes CN 10 [16]): > 100 µg/mL |
| CC1=C(C(=O)O)N2C(=O)[C@@H](NC(=O)Cn3ncnn3)[C@H]2n2nncc21 [Compound 47, (3aR,4S)-4,5-Dihydro-5-oxo-8-methyl-4-(2-tetrazolylacetamido)-3aH-azeto[1,2-a]v-triazolo[3,4-c]pyrimidine-7-carboxylic acid] |  |  |  |  |  |  |  |  |  |  |  |  | 0.5 µg/mL (≈ 1.45 µM) | > 100 µg/mL | > 100 µg/mL | > 100 µg/mL | > 100 µg/mL | > 100 µg/mL | > 100 µg/mL | > 100 µg/mL | MIC (S. aureus Oxford [14]): 2.5 µg/mL (≈ 7.24 µM); MIC (S. aureus Russell): 5 µg/mL (≈ 14.5 µM); MIC (S. faecalis 1 [15]): 50 µg/mL (≈ 145 µM); MIC (S. pyogenes CN 10 [16]): 1 µg/mL (≈ 2.9 µM) |
| CC1=C(C(=O)O)N2C(=O)[C@@H](NC(=O)[C@H](O)c3ccccc3)[C@H]2n2nncc21 [Compound 42, (3aR,4S) 4,5-Dihydro-5-oxo-8-methyl-4-D-mandelylamino-3aH-azeto[1,2-a]v-triazolo[3,4-c]pyrimidine-7-carboxylic acid] |  |  |  |  |  |  |  |  |  |  |  |  | 1 µg/mL (≈ 2.71 µM) | > 100 µg/mL | > 100 µg/mL | > 100 µg/mL | > 100 µg/mL | 100 µg/mL (≈ 271 µM) | > 100 µg/mL | > 100 µg/mL | MIC (S. aureus Oxford [14]): 25 µg/mL (≈ 67.7 µM); MIC (S. aureus Russell): > 100 µg/mL; MIC (S. faecalis 1 [15]): > 100 µg/mL |
| CC1=C(C(=O)O)N2C(=O)[C@@H](NC(=O)[C@H](N)c3ccccc3)[C@H]2n2nncc21 [Compound 46, (3aR,4S)-4,5-Dihydro-5-oxo-8-methyl-4-D-α-phenylglycylamino-3aH-azeto[1,2-a]v-triazolo[3,4-c]pyrimidine-7-carboxylic acid trifluoroacetic acid salt] |  |  |  |  |  |  |  |  |  |  |  |  | 100 µg/mL | > 100 µg/mL | > 100 µg/mL | > 100 µg/mL | > 100 µg/mL | > 100 µg/mL | > 100 µg/mL | > 100 µg/mL | MIC (S. aureus Oxford [14]): > 100 µg/mL; MIC (S. aureus Russell): > 100 µg/mL; MIC (S. faecalis 1 [15]): > 100 µg/mL |
| CC(=O)OCC1=C(C(=O)O)N2C(=O)[C@@H](NC(=O)Cc3cccs3)[C@H]2n2nncc21 [Compound 57, (3aR,4S) 4,5-Dihydro-5-oxo-8-acetoxymethyl-4-(2-thienylacetamido)-3aH-azeto[1,2-a]v-triazolo[3,4-c]pyrimidine-7-carboxylic acid] |  |  |  |  |  |  |  |  |  |  |  |  | 100 µg/mL (≈ 240 µM) | > 100 µg/mL | > 100 µg/mL | > 100 µg/mL | > 100 µg/mL | > 100 µg/mL | > 100 µg/mL | > 100 µg/mL | MIC (S. aureus Oxford [14]): > 100 µg/mL; MIC (S. aureus Russell): > 100 µg/mL; MIC (S. faecalis 1 [15]): > 100 µg/mL; MIC (S. pyogenes CN 10 [16]): > 100 µg/mL |
